Where two headings read alike, the source gives them in different places.
Tests used:
His6-GSK-3β = molecular target: T1, His6-GSK-3β (Homo sapiens, UniProt P49841); assay: Inhibition of His6-GSK-3β kinase activity (ELISA-based format, time-resolved fluorescence readout); format: biochemical; conditions: read-out: GSK3β IC50
T1 construct: made in house; host or cells: Sf21 insect cells (baculovirus)
How it was run: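 Plate-bound recombinant GST-Rb substrate was phosphorylated for 30 min at 37° C by baculovirus-expressed His6-GSK-3β (200 ng/ml) at 20 μM ATP, 10 mM MgCl2, 2.5% DMSO. Europium time-resolved fluorescence of anti-phospho-Ser780 Rb signal gave inhibition, fitted to IC50.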

CDK5/GST-p25 = molecular target: T2, CDK5/GST-p25 (Homo sapiens, UniProt Q00535); assay: Inhibition of CDK5/GST-p25 kinase activity (ELISA with time-resolved fluorescence readout); format: biochemical
T2 construct: The final construct, encoding for full-length human CDK5; made in house; host or cells: Sf21 insect cells (baculovirus co-infection)
How it was run: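 The substrate, GST-Rb(773-928), was immobilised on plates and phosphorylated for 20 min at 37 °C by 2 ng/ml CDK5/GST-p25 in HEPES pH 7.2 with 10 µM ATP and 10 mM MgCl2. Both proteins were human and co-expressed in insect cells. Ser-780 phosphorylation was read by europium time-resolved fluorescence and converted to IC50.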

T1 sequence (P49841 2-419): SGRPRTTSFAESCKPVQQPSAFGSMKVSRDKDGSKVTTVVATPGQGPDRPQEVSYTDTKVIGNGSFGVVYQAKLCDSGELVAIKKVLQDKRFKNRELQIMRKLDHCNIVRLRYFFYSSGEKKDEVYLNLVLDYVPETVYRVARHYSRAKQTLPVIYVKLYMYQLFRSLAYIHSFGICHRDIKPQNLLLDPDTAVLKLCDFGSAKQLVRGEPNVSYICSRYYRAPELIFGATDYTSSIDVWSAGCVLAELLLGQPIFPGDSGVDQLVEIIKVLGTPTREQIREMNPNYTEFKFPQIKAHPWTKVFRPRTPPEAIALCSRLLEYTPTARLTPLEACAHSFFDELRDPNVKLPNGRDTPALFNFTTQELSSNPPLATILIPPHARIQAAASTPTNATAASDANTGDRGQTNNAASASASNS
T2 sequence (Q00535 whole entry): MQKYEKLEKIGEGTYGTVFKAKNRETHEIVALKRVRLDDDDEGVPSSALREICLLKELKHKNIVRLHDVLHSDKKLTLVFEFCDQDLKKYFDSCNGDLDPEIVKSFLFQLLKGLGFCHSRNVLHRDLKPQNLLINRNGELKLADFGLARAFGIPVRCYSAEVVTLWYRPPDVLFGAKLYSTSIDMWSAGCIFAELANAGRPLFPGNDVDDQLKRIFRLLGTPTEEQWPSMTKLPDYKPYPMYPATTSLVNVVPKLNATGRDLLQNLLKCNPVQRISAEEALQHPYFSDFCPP
T2 sequence (Q15078 108-307 partner limits assumed): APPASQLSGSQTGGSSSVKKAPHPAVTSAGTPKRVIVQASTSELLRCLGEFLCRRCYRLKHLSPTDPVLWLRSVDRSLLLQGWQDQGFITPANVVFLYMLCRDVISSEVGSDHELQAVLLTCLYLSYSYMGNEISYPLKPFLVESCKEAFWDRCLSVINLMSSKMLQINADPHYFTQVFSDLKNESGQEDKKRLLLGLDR

| melting point | IC50 (His6-GSK-3β; class symbols) | IC50 (CDK5/GST-p25; numeric bounds) | IC50 (CDK5/GST-p25; class symbols) | IC50 (His6-GSK-3β; numeric bounds) | SMILES |
| --- | --- | --- | --- | --- | --- |
| 288 to 291 °C | < 300 nM | > 1000 nM | – | – | O=C1Nc2ccc(C(F)(F)F)cc2C1c1nc(NCCCN2CCOCC2)nc2nn(C3CCCC3)cc12 (stereo not drawn) [Example 162, 3-[2-cyclopentyl-6-(3-morpholin-4-yl-propylamino)-2H-pyrazolo [3,4-d]pyrimidin-4-yl]-5-trifluoromethyl-1,3-dihydro-indol-2-one] |
| 243 to 243.5 °C | < 300 nM | – | < 300 nM | – | N#Cc1ccc2c(c1)C(c1nc(N(CCO)CCO)nc3nn(C4CCCC4)cc13)C(=O)N2 (stereo not drawn) [Example 168, 3-{6-[bis(2-hydroxyethyl)amino]-2-cyclopentyl-2H-pyrazolo[3,4-d]pyrimidin-4-yl}-2-oxo-2,3-dihydro-1H-indole-5-carbonitrile] |
| > 350 °C | – | – | < 300 nM | > 3000 nM | Cn1ncc2c(C3C(=O)Nc4ccc(Br)cc43)ncnc21 (stereo not drawn) [Example 85, 5-Bromo-3-(1-methyl-1H-pyrazolo[3,4-d]pyrimidin-4-yl)-1,3-dihydro-indol-2-one] |
| 272 to 276 °C | < 300 nM | – | < 300 nM | – | CCCn1cc2c(C3C(=O)Nc4ccc(Br)cc43)nc(NCCN)nc2n1 (stereo not drawn) [Example 200, 3-[6-(2-Amino-ethylamino)-2-propyl-2H-pyrazolo [3,4-d]pyrimidin-4-yl]-5-bromo-1,3-dihydro-indol-2-one] |
| 290 to 293 °C | < 300 nM | – | 300 to 3000 nM | – | Cl.NCCNc1nc(C2C(=O)Nc3ccc(C(F)(F)F)cc32)c2cn(C3CCCC3)nc2n1 (stereo not drawn) [Example 252, 3-[6-(2-Amino-ethylamino)-2-cyclopentyl-2H-pyrazolo[3,4-d]pyrimidin-4-yl]-5-trifluoromethyl-1,3-dihydroindol-2-one hydrochloride salt] |
| 256 to 260 °C | 300 to 3000 nM | – | < 300 nM | – | O=C1Nc2ccc(F)cc2C1c1ncnc2nn(C3CCCC3)cc12 (stereo not drawn) [Example 40, 3-(2-Cyclopentyl-2H-pyrazolo[3,4-d]pyrimidin-4-yl)-5-fluoro-1,3-dihydro-indol-2-one] |
| > 300 °C | > 10000 nM | – | > 10000 nM | – | CNc1nc(C2C(=O)Nc3ccc(C(F)(F)F)cc32)c2cn(C3CCCC3)nc2n1 (stereo not drawn) [Example 159, 3(-2-cyclopentyl-6-methylamino-2H-pyrazolo[3,4-d]pyrimidin-4-yl)-5-trifluoromethyl-1,3-dihydro-indol-2-one] |
| 242 to 245 °C | 300 to 3000 nM | > 3000 nM | – | – | O=C1Nc2ccccc2C1c1nc(NCCCN2CCOCC2)nc2nn(C3CCCC3)cc12 (stereo not drawn) [Example 157, 3-[2-cyclopentyl-6-(3-morpholin-4-yl-propylamino)-2H-pyrazolo[3,4-d]pyrimidin-4-yl]-1,3-dihydro-indol-2-one] |
| > 380 °C | 300 to 3000 nM | – | < 300 nM | – | N#Cc1cccc2c1NC(=O)C2c1ncnc2nn(C3CCCC3)cc12 (stereo not drawn) [Example 39, 3-(2-Cyclopentyl-2H-pyrazolo[3,4-d]pyrimidin-4-yl)-2-oxo-2,3-dihydro-1H-indole-7-carbonitrile] |
| > 300 °C (dec.) | 300 to 3000 nM | – | > 10000 nM | – | O=C1Nc2ccc([N+](=O)[O-])cc2C1c1ncnc2c1cnn2C1CCCC1 (stereo not drawn) [Example 57, 3-(1-Cyclopentyl-1H-pyrazolo[3,4-d]pyrimidin-4-yl)-5-nitro-1,3-dihydro-indol-2-one] |
| > 300 °C (dec.) | < 300 nM | – | < 300 nM | – | N#Cc1ccc2c(c1)C(c1ncnc3nn(C4CCCC4)cc13)C(=O)N2 (stereo not drawn) [Example 30, 3-(2-Cyclopentyl-2H-pyrazolo[3,4-d]pyrimidin-4-yl)-2-oxo-2,3-dihydro-1H-indole-5-carbonitrile] |
| > 300 °C | 300 to 3000 nM | – | < 300 nM | – | CC(C)n1cc2c(C3C(=O)Nc4ccc(C#N)cc43)ncnc2n1 (stereo not drawn) [Example 382, 3-(2-Isopropyl-2H-pyrazolo[3,4-d]pyrimidin-4-yl)-2-oxo-2,3-dihydro-1H-indole-5-carbonitrile] |
